The assay deals with T1, Recombinant human CBP containing the bromodomain (CBP-BD (1043-1159)) (Homo sapiens, UniProt Q92793).
T1 construct: Recombinant human CBP bromodomain (CBP-BD (1043-1159)); made in house; host or cells: E. coli BL21-CodonPlus (DE3), modified pET vector
Nature of the assay: CBP Alphascreen binding assay. To be noted: read-out: CREBBP (CBP) IC50. The method, then:
CBP Alphascreen Binding Assay
Binding of compounds of Formula (I) with CBP was assessed using Alphascreen™ binding assay. The inhibition of the interaction between the CBP bromodomain and its acetylated target protein was measured quantitatively using recombinant CBP, an acetylated Histone 3 peptide and AlphaScreen™ technology. In absence of inhibition of the CBP protein bound to AlphaScreen™ nickel chelate acceptor beads can interact with the acetylated Histone 3 peptide which was immobilized by the AlphaScreen™ Streptavidin coated beads. This interaction brings donor and acceptor beads in proximity. The close proximity allows the singlet oxygen produced by laser excitation of the donor beads to reach the acceptor beads and generate a luminescence signal. CBP inhibitors result in a decrease in the proximity signal through an inhibition of the CBP—acetylated peptide interaction.
Recombinant human CBP containing the bromodomain (CBP-BD (1043-1159)) was prepared and purified as described in protein expression and purification session. The peptide was human Histone H345-64K56Ac-Biotin (Anaspec CA, USA).
Protocol for CBP assay: All components are prepared in buffer composed of 50 mM HEPES pH 7.5, 50 mM NaCl, 0.01% BSA, 0.01% Triton X-100, 2 mM DTT. Test compounds and DMSO vehicle are diluted 1:50 in buffer and a 4 μL volume was transferred to an Alphaplate. 5.5 μL of CBP protein and 5.5 μL of peptide are added to wells containing 4 μL of various concentrations of test compounds of Formula (I) or DMSO vehicle in an Alphaplate (PerkinElmer GA, USA) and incubated for 1 hour at room temperature. 5 μL donor and acceptor bead mixture was then added with final concentrations of 7.5 μg/ml. 60 minutes after bead addition, Alpha signal was read on the Envision spectrometer (λEx 680 nm, λEm 520-620 nm). Final concentrations of bromodomain proteins and peptide are as shown below.
All data were normalized to the mean of 16 high and 16 low control wells on each plate. A four parameter curve fit of the following formula was then applied: Y=A+((B−A)/(1+((C/x)^D))) Where ‘A’ is the minimum, ‘B’ is the maximum, ‘C’ is the IC50 and ‘D’ is the Hill slope. Protein Expression and Purification
Recombinant human CBP bromodomain (CBP-BD (1043-1159)) was expressed in E. coli cells (in a modified pET vector) with an N-terminal six-His tag and purified using a combination of both IMAC (Ni-affinity) and size exclusion chromatography steps.
Recombinant CBP protein was expressed using the E. coli strain BL21-CodonPlus (DE3) (Agilent Technologies CA, USA). Cells were grown in Terrific Broth (TB) media to an OD600 of 0.92 at 37° C. at which temperature was reduced to 20° C., protein was induced with 1.0 mM isopropyl-β-D-thiogalactopyranoside (“IPTG”) for 20 hours and harvested by centrifugation at 8500×g for 20 minutes. Cells were re-suspended in 0.1M K2PO4 pH 8.0, 250 mM NaCl, 10% Glycerol, 0.75% NP-40, 25 mM Imidazole, with 0.2 mg/ml Lysozyme, 0.2 mM phenylmethanesulfonyl fluoride (“PMSF”), […] (“BME”), 25 μg/ml DNase I, incubated on ice for 30 minutes and lysed with a cell disruptor (MicroFluidics MA, USA). The lysate was clarified by centrifugation at 20,000×g for 1 hour. The protein was captured with Ni-NTA resin (Life Technologies, USA). Contaminating proteins were washed off with 40 mM HEPES pH 7.5, 500 mM NaCl, 5% Glycerol, 5 mM Imidazole, and 5 mM BME. Following 3× wash steps, protein was eluted using 400 mM Imidazole in 40 mM HEPES pH 7.5, 400 mM NaCl, and 5 mM BME. The protein was further purified using a size exclusion column (26/600 Superdex 200, GE Biosciences NJ, USA) in 40 mM HEPES pH 7.5, 250 mM NaCl, 5 mM BME. The protein was aliquoted and flash-frozen in liquid Nitrogen.

Structures are written as SMILES.

T1 sequence (Q92793 1081-1197): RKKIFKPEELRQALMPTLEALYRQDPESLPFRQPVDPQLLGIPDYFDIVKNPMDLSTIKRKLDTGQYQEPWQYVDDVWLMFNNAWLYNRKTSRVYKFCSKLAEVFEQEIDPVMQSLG

`CCOc1cc(C(=O)O)ccc1-c1cn([C@@H](C)c2ccccn2)c2ncc(-c3c(C)noc3C)cc12` [P-0114, (S)-4-(5-(3,5-dimethylisoxazol-4-yl)-1-(1-(pyridin-2-yl)ethyl)-1H-pyrrolo[2,3-b]pyridin-3-yl)-3-ethoxybenzoic acid]: the IC50 was 0.0001 to 1 µM.

As to `Cc1noc(C)c1-c1cnc2c(c1)c(-c1ccc(C(=O)O)cc1OCC(F)(F)F)cn2[C@@H](C)c1ccccn1` [P-0115, (S)-4-(5-(3,5-dimethylisoxazol-4-yl)-1-(1-(pyridin-2-yl)ethyl)-1H-pyrrolo[2,3-b]pyridin-3-yl)-3-(2,2,2-trifluoroethoxy)benzoic acid], the IC50 lay within 0.0001 to 1 µM.

Take `Cc1noc(C)c1-c1cnc2c(c1)c(-c1ccc(C(=O)O)cc1C(F)(F)F)cn2[C@@H](C)c1ccccn1` [P-0116, (S)-4-(5-(3,5-dimethylisoxazol-4-yl)-1-(1-(pyridin-2-yl)ethyl)-1H-pyrrolo[2,3-b]pyridin-3-yl)-3-(trifluoromethyl)benzoic acid]: the IC50 was in the range of 0.0001 to 1 µM.

Consider `CCCOc1cc(C(=O)O)cc(OCCC)c1-c1cn([C@@H](C)c2ccccn2)c2ncc(-c3c(C)noc3C)cc12` [P-0117, (S)-4-(5-(3,5-dimethylisoxazol-4-yl)-1-(1-(pyridin-2-yl)ethyl)-1H-pyrrolo[2,3-b]pyridin-3-yl)-3,5-dipropoxybenzoic acid], for which the IC50 was 0.0001 to 1 µM.

Consider `Cc1noc(C)c1-c1cnc2c(c1)c(-c1c(OC(C)C)cc(C(=O)O)cc1OC(C)C)cn2[C@@H](C)c1ccccn1` [P-0118, (S)-4-(5-(3,5-dimethylisoxazol-4-yl)-1-(1-(pyridin-2-yl)ethyl)-1H-pyrrolo[2,3-b]pyridin-3-yl)-3,5-diisopropoxybenzoic acid], for which the IC50 was in the range of 0.0001 to 1 µM.

Consider `COc1cc(C(=O)O)cc(OC)c1-c1cn(C(C)c2ccccc2)c2cc(-c3c(C)noc3C)cnc12` (centres unmarked) [P-0119, 4-(6-(3,5-dimethylisoxazol-4-yl)-1-(1-phenylethyl)-1H-pyrrolo[3,2-b]pyridin-3-yl)-3,5-dimethoxybenzoic acid], for which the IC50 lay within 0.0001 to 1 µM.

For the molecule `Cc1noc(C)c1-c1cnc2c(-c3ccccc3C(=O)O)cn(C(C)c3ccccc3)c2c1` (centres unmarked) [P-0120, 2-(6-(3,5-dimethylisoxazol-4-yl)-1-(1-phenylethyl)-1H-pyrrolo[3,2-b]pyridin-3-yl)benzoic acid], the half-maximal inhibitory concentration (IC50) lay within 1 to 8 µM.

For `Cc1noc(C)c1-c1cnc2c(C(=O)C3CCC3)cn(-c3c(Cl)cc(C(=O)O)cc3Cl)c2c1` [P-0121, 3,5-dichloro-4-(3-(cyclobutanecarbonyl)-6-(3,5-dimethylisoxazol-4-yl)-1H-pyrrolo[3,2-b]pyridin-1-yl)benzoic acid], the IC50 was in the range of 0.0001 to 1 µM.

Take `Cc1noc(C)c1-c1cnc2c(c1)c(-c1cccc(C(=O)O)n1)cn2C(C)c1ccccn1` (centres unmarked) [P-0122, 6-(5-(3,5-dimethylisoxazol-4-yl)-1-(1-(pyridin-2-yl)ethyl)-1H-pyrrolo[2,3-b]pyridin-3-yl)picolinic acid]: the IC50 lay within 1 to 8 µM.

`Cc1noc(C)c1-c1cnc2c(c1)c(-c1ccc(C(=O)O)cn1)cn2C(C)c1ccccn1` (centres unmarked) [P-0123, 6-(5-(3,5-dimethylisoxazol-4-yl)-1-(1-(pyridin-2-yl)ethyl)-1H-pyrrolo[2,3-b]pyridin-3-yl)nicotinic acid]: the IC50 is 0.0001 to 1 µM.

Consider `Cc1noc(C)c1-c1cnc2c(c1)c(-c1cc(C(=O)O)ccn1)cn2C(C)c1ccccn1` (centres unmarked) [P-0124, 2-(5-(3,5-dimethylisoxazol-4-yl)-1-(1-(pyridin-2-yl)ethyl)-1H-pyrrolo[2,3-b]pyridin-3-yl)isonicotinic acid], for which the IC50 lay within 0.0001 to 1 µM.

`Cc1noc(C)c1-c1cnc2c(c1)c(-c1ccc(F)c(C(=O)O)c1F)cn2[C@@H](C)c1ccccn1` [P-0125, (S)-3-(5-(3,5-dimethylisoxazol-4-yl)-1-(1-(pyridin-2-yl)ethyl)-1H-pyrrolo[2,3-b]pyridin-3-yl)-2,6-difluorobenzoic acid]: the IC50 fell in the range of 0.0001 to 1 µM.

Consider `Cc1noc(C)c1-c1cnc2c(c1)c(-c1ccnc(C(=O)O)n1)cn2C(C)c1ccccn1` (centres unmarked) [P-0126, 4-(5-(3,5-dimethylisoxazol-4-yl)-1-(1-(pyridin-2-yl)ethyl)-1H-pyrrolo[2,3-b]pyridin-3-yl)pyrimidine-2-carboxylic acid], for which the IC50 is 0.0001 to 1 µM.

On to `CCCOc1cc(C(=O)O)cc(OCCC)c1-n1cc(CC2CCC2)c2ncc(-c3c(C)noc3C)cc21` [P-0127, 4-(3-(cyclobutylmethyl)-6-(3,5-dimethylisoxazol-4-yl)-1H-pyrrolo[3,2-b]pyridin-1-yl)-3,5-dipropoxybenzoic acid], for which the half-inhibitory concentration (IC50) is 0.0001 to 1 µM.

Regarding `Cc1noc(C)c1-c1cnc2c(Cc3cccc(Cl)c3)cn(-c3c(Cl)cc(C(=O)O)cc3Cl)c2c1` [P-0128, 3,5-dichloro-4-(3-(3-chlorobenzyl)-6-(3,5-dimethylisoxazol-4-yl)-1H-pyrrolo[3,2-b]pyridin-1-yl)benzoic acid], the IC50 fell in the range of 0.0001 to 1 µM.

On to `Cc1noc(C)c1-c1cnc2c(C(=O)c3cccc(OC(F)F)c3)cn(-c3c(Cl)cc(C(=O)O)cc3Cl)c2c1` [P-0129, 3,5-dichloro-4-(3-(3-(difluoromethoxy)benzoyl)-6-(3,5-dimethylisoxazol-4-yl)-1H-pyrrolo[3,2-b]pyridin-1-yl)benzoic acid], for which the IC50 was in the range of 0.0001 to 1 µM.

In the case of `Cc1noc(C)c1-c1cnc2c(CC3CCC3)cn(-c3ccc([N+](=O)[O-])cc3F)c2c1` [P-0130, 4-(3-(cyclobutylmethyl)-1-(2-fluoro-4-nitrophenyl)-1H-pyrrolo[3,2-b]pyridin-6-yl)-3,5-dimethylisoxazole], the concentration for half-maximal inhibition (IC50) lay in the range of 8 to 1000 µM.

In the case of `Cc1noc(C)c1-c1cnc2c(Cc3ccccc3Cl)cn(-c3c(Cl)cc(C(=O)O)cc3Cl)c2c1` [P-0131, 3,5-dichloro-4-(3-(2-chlorobenzyl)-6-(3,5-dimethylisoxazol-4-yl)-1H-pyrrolo[3,2-b]pyridin-1-yl)benzoic acid], the IC50 fell in the range of 0.0001 to 1 µM.

`Cc1noc(C)c1-c1cnc2c(Cc3cccc(OCc4ccccc4)c3)cn(-c3c(Cl)cc(C(=O)O)cc3Cl)c2c1` [P-0132, 4-(3-(3-(benzyloxy)benzyl)-6-(3,5-dimethylisoxazol-4-yl)-1H-pyrrolo[3,2-b]pyridin-1-yl)-3,5-dichlorobenzoic acid]: the IC50 lay in the range of 0.0001 to 1 µM.

Take `Cc1noc(C)c1-c1cnc2c(C(=O)c3cccc(OCc4ccccc4)c3)cn(-c3c(Cl)cc(C(=O)O)cc3Cl)c2c1` [P-0133, 4-(3-(3-(benzyloxy)benzoyl)-6-(3,5-dimethylisoxazol-4-yl)-1H-pyrrolo[3,2-b]pyridin-1-yl)-3,5-dichlorobenzoic acid]: the IC50 lay in the range of 0.0001 to 1 µM.

As for `COc1ccc(-n2cc(CC3CCC3)c3ncc(-c4c(C)noc4C)cc32)cn1` [P-0134, 4-(3-(cyclobutylmethyl)-1-(6-methoxypyridin-3-yl)-1H-pyrrolo[3,2-b]pyridin-6-yl)-3,5-dimethylisoxazole], the IC50 is 1 to 8 µM.

In the case of `COc1cc(C(=O)O)cc(OCc2ccccc2)c1-c1cn([C@@H](C)c2ccccn2)c2ncc(-c3c(C)noc3C)cc12` [P-0135, (S)-3-(benzyloxy)-4-(5-(3,5-dimethylisoxazol-4-yl)-1-(1-(pyridin-2-yl)ethyl)-1H-pyrrolo[2,3-b]pyridin-3-yl)-5-methoxybenzoic acid], the IC50 lay within 0.0001 to 1 µM.

`COc1c(C(=O)O)cccc1-c1cn(C(C)c2ccccc2)c2cc(-c3c(C)noc3C)cnc12` (centres unmarked) [P-0136, 3-(6-(3,5-dimethylisoxazol-4-yl)-1-(1-phenylethyl)-1H-pyrrolo[3,2-b]pyridin-3-yl)-2-methoxybenzoic acid]: the IC50 fell in the range of 0.0001 to 1 µM.

Source of the values: patent publication US11446287B2, “Compounds and methods for EP300 or CBP modulation and indications therefor” (Opna Immuno-Oncology SA, priority 2019, dated 2022).
